# Experimental data published in the supplement of paper PMC10307832.
# Assays:
# Assay in all cases: relative viability (nuclei count vs DMSO), 5 days (fraction); higher = more cells survive
# [1] = compound: CC(C)CCN1c2nc(Nc3cc(F)c(O)c(F)c3)ncc2N(C)C(=O)C1C [BI-D1870] + CC1(C)CCC(c2ccc(Cl)cc2)=C(CN2CCN(c3ccc(C(=O)NS(=O)(=O)c4ccc(N[C@H](CCN5CCOCC5)CSc5ccccc5)c(S(=O)(=O)C(F)(F)F)c4)cc3)CC2)C1 [Navitoclax] (partner 0.5 µM)
# How it was run: (§1)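 Lung cancer cell lines in 1536-well plates got either a single drug or a fixed anchor-drug dose together with five library-drug doses (not always all listed) in √10 steps, by pin tool, on the day after seeding. Nuclei were counted after 5 days, and relative viability is the treated-to-vehicle ratio of nuclei counts. Values are medians of duplicate plates.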
# [2] = compound: CC(C)CCN1c2nc(Nc3cc(F)c(O)c(F)c3)ncc2N(C)C(=O)C1C [BI-D1870] + N=C(N)NC(=N)NCCc1ccccc1 [Phenformin] (partner 250 µM)
# How it was run: as §1
# [3] = compound: O=c1ncccn1[C@@H]1O[C@H](CO)[C@@H](O)[C@H]1O [Zebularine] + CCNC(=O)c1noc(-c2cc(C(C)C)c(O)cc2O)c1-c1ccc(CN2CCOCC2)cc1 [Luminespib] (partner 0.01 µM)
# How it was run: as §1
# [4] = compound: O=c1ncccn1[C@@H]1O[C@H](CO)[C@@H](O)[C@H]1O [Zebularine] + Cc1nc(NC(=O)N2CCC[C@H]2C(N)=O)sc1-c1ccnc(C(C)(C)C(F)(F)F)c1 [Alpelisib] (partner 2 µM)
# How it was run: as §1
Cell Line,relative viability ([1]; first compound 0.04 µM),relative viability ([1]; first compound 0.1265 µM),relative viability ([1]; first compound 0.4 µM),relative viability ([1]; first compound 1.265 µM),relative viability ([1]; first compound 4 µM),relative viability ([2]; first compound 0.04 µM),relative viability ([2]; first compound 0.1265 µM),relative viability ([2]; first compound 0.4 µM),relative viability ([2]; first compound 1.265 µM),relative viability ([2]; first compound 4 µM),relative viability ([3]; first compound 1 µM),relative viability ([3]; first compound 3.162 µM),relative viability ([3]; first compound 10 µM),relative viability ([3]; first compound 31.62 µM),relative viability ([3]; first compound 100 µM),relative viability ([4]; first compound 1 µM),relative viability ([4]; first compound 3.162 µM),relative viability ([4]; first compound 10 µM),relative viability ([4]; first compound 31.62 µM),relative viability ([4]; first compound 100 µM)
NCI-H1734,0.875,0.757,0.842,0.849,0.81,0.402,0.379,0.412,0.43,0.376,0.197,0.171,0.185,0.217,0.178,0.738,0.725,0.387,0.396,0.347
NCI-H1755,1.06,0.945,0.995,1.07,1.01,0.651,0.62,0.647,0.688,0.573,0.481,0.426,0.39,0.522,0.44,1.07,1.03,0.538,0.92,0.61
NCI-H1792,0.655,0.666,0.597,0.791,0.608,0.361,0.289,0.259,0.504,0.508,0.667,0.4,0.286,0.266,0.254,0.8,0.622,0.514,0.215,0.316
NCI-H1793,0.34,0.342,0.372,0.554,0.45,0.387,0.311,0.389,0.423,0.27,0.196,0.197,,0.203,0.142,0.812,0.7,0.391,0.357,0.193
NCI-H1915,0.822,0.763,0.803,0.815,0.746,0.376,0.358,0.378,0.305,0.291,0.887,0.818,,0.772,0.322,1.18,1.05,0.984,1.05,0.93
NCI-H1944,1.01,1.02,0.988,1.09,1.06,0.218,0.185,0.184,0.237,0.205,0.837,0.707,0.718,0.711,0.533,0.858,0.906,0.629,0.805,0.688
NCI-H1975,1.12,1.22,1.14,1.06,0.54,0.4,0.37,0.422,0.426,0.313,0.249,0.196,0.241,0.199,0.14,0.705,0.555,0.4,0.354,0.233
NCI-H1993,0.91,0.888,0.988,1.07,0.73,0.482,0.403,0.487,0.468,0.572,0.908,0.687,0.749,0.815,0.847,0.666,0.76,,0.68,0.699
NCI-H2009,1.22,1.12,1.15,1.09,0.865,0.546,0.457,0.456,0.329,0.222,1.09,1.04,0.793,0.859,0.3,1.18,1.13,0.97,0.947,0.392
NCI-H2023,1.03,0.811,1.01,0.864,0.894,0.487,0.367,0.408,0.416,0.308,0.942,1.04,0.301,0.448,0.174,0.697,0.551,0.533,0.53,0.287
NCI-H2085,1.14,1.07,1.11,1.06,0.865,0.806,0.658,0.676,0.69,0.52,0.625,0.436,0.339,0.423,0.277,1.04,0.977,0.802,0.96,0.535
NCI-H2087,1.14,1.01,1.06,1.09,0.802,0.512,0.532,0.486,0.536,0.459,0.19,0.17,0.143,0.176,0.141,1.31,1.01,0.684,0.778,0.309
NCI-H2126,0.876,0.829,0.853,0.904,0.771,0.525,0.493,0.508,0.53,0.511,1.01,0.85,0.889,0.795,0.379,0.783,0.694,0.764,0.687,0.437
NCI-H2170,0.608,0.524,0.578,0.514,0.496,0.439,0.414,0.415,0.423,0.441,1.07,0.942,0.223,0.689,0.272,0.85,0.84,0.543,0.684,0.507
NCI-H2228,0.94,0.811,0.819,0.823,0.359,0.4,0.417,0.317,0.348,0.288,0.198,0.147,0.175,0.226,0.153,0.782,0.615,0.632,0.693,0.374
NCI-H2347,0.778,0.914,0.617,0.975,0.54,0.67,0.377,0.405,0.443,0.406,0.504,0.418,0.293,0.213,0.28,1.02,0.867,0.686,0.694,0.474
